Measurements taken from patent US6491922B1, “Methods and compounds for treating autoimmune and vascular disease” (Cornell Research Foundation, Inc., priority 1996, dated 2002).

Experiments:
IL-1β transcription = assay: In vitro transcription by nuclear run-off assay, IL-1β; type: cell-based, human; details: THP-1 nuclei; 2 μM LPG 2 h, LPS 2 μg/ml 4 h
Procedure: Nuclei isolation. Procedures for isolating nuclei have been described in Ausubel, F. M. et al., Current Protocols in Molecular Biology 1(4.9):4.9.1-4.9.14 and 1(4.10):4.10.1-4.10.11 (1993), hereby incorporated by reference. THP-1 cells (5×10^7 cells) treated with medium or medium containing 2 μM LPG for 2 h were stimulated or not stimulated with 2 μg/ml LPS for 4 h, at 37° C. in 5% CO2. Cells were harvested by gentle scraping, washed twice with 5 ml ice cold PBS and centrifugation at 350×g for 5 min. After removal of supernatant, cells were gently loosen by 5 sec vortex and 4 ml NP-40 buffer was added by continuous vortex. The NP-40 buffer is composed of 10 mM Tris HCl (pH 7.4), 10 mM NaCl, 3 mM MgCl2, and 0.5% noridet P-40 (NP-40). The cell suspension was further vortexed at half maximal speed for 10 sec and placed on ice for 5 min. Cells were visually inspected to ascertain the separation of nuclei from cytophasmic material. Nuclei were wash once more with 4 ml NP-40 buffer by centrifugation at 350×g, 5 min. The pelleted nuclei were resuspended with 200 μl glycerol buffer and stored in liquid nitrogen until nuclear run-off assay. Glycerol buffer is composed of 50 mM Tris Hcl (pH 8.3), 40% (v/v) glycerol, 5 mM MgCl2, 0.1 mM ethylenediaminetetraacetic acid (EDTA).
In vitro transcription. […]

endothelial cells = assay: ^3H-lyso-PI binding to endothelial cells; set-up: species or system human; details: cold-LPG competition at 20×molar excess; n=2
Procedure: To evaluate whether lyso-PI may directly bind to endothelial cells, endothelial cells (10^6 per ml) were incubated with ^3H-lyso-PI (1 μM [specific activity, ˜10,000 cpm/nmole], 45 min, 25° C.). As a control, endothelial cells were pretreated with LPG (20 μM, 15 min, 25° C.) before the incubation with ^3H-lyso-PI. Following incubation, the cell suspension was layed onto silicone oil (Silicones FC-50, General Electric, Waterford, N.Y.) and cell-bound ^3H-lyso-PI was separated from free-^3H-lyso-PI by centrifugation (10,000 g, 10 min, room temperature). The amount of ^3H-lyso-PI in the cell pellet and in the supernatant were solubilized in Ecoscint (National Diagnostics, Highland Park, N.J.) and quantitated by a β-emission counter (Beckman Instruments, Palo Alto, Calif.).

[1] = test system: human umbilical vein endothelial cells; assay: LPG and LPG fragment binding to endothelial cells (indirect immunofluorescence, FACS); details: LPG 1 μM
IL-1β mRNA = assay: Northern analysis of IL-1β mRNA induction in peripheral blood monocytes; details: 2 μM LPG pretreatment 2 h, N=2
Excerpt: Human peripheral blood cells from the New York Blood Center (New York, N.Y.) obtained by Hypaque-Ficoll density centrifugation and adherence to plastic are 99% monocytes. […] Human monocytic cells THP-1 (TIB-202) and plasmid containing glyceraldehyde-3-phosphate dehydrogenase [GAPDH] cDNA (cat. #57090) were obtained from American Type Culture Collection (ATCC), Rockville, MdD. […] RPMI-1640, fetal bovine serum, L-glutamine, and penicillin-streptomycin (Gibco, Grand Island, N.Y.); β-mercaptoethanol, phorbol 12-myristate 13-acetate (PMA) and LPS from Escherichia coli serotype 055: B5 were purchased from the Sigma Chemical Co., St. Louis, Miss.
Human monocytes were cultured in endotoxin free complete medium as previously described. […]
Cells treated with or without LPG and/or inducers of IL-1β were harvested by gentle scrapping using a rubber policeman and sedimented by centrifugation at 500 g for 5 minutes in a microfuge. Total RNA was extracted using RNA STAT-60 solution (TEL-TEST “B” Inc., Friendswood, Tex.), based on a single step method for RNA isolation (P. Chomczynski and N. Sacchi, “Single-step Method of RNA Isolation by Acid Guanidinium Thiocyanate-phenol-chloroform Extraction,” Anal. Biochem., 162:156-59 (1987), hereby incorporated by reference), and quantitated by spectrophotometry.

tissue factor = assay: Tissue factor production by endothelial cells (one-stage clotting assay); type: cell-based, human
Procedure: Endothelial cell monolayers were pretreated with LPG for 1 hour and stimulated with endotoxin. Cultured endothelial cells, when stimulated by endotoxin, expressed high amounts of tissue factor. […] The production of tissue factor (in culture supernatant) is determined by a one-stage clotting assay. Helin et. al., “Allogeneic Induction of the Human T-cell-instructed Monocyte Procoagulant Response is Rapid and is Elicited by HLA-DR,” J. Exp. Med. 158: 962-75 (1983), which is hereby incorporated by reference.
To further examine if LPG can inhibit other endothelial cell functions, it was determined whether LPG inhibits thrombosis. Since thrombosis is mediated by the release of tissue factor (“TF”) by endothelial cells, the ability of LPG to inhibit TF production was evaluated. Cultured endothelial cells when stimulated by endotoxin express TF as determined by a one-stage clotting assay. Helin et. al., “Allogeneic Induction of the Human T-cell-instructed Monocyte Procoagulant Response is Rapid and is Elicited by HLA-DR,” J. Exp. Med. 158: 962-75 (1983), which is hereby incorporated by reference. […] To explore whether this effect was agonist specific, another agonist, TNF-α which is known to up-regulate TF generation, was used.

Substance: lipophosphoglycan [LPG]
- inhibition of LPS induced IL-1β mRNA transcription (IL-1β transcription): approximately 65%
- inhibition of ^3H-lyso-PI binding (endothelial cells): 29±3%
- time at which LPG binding was obvious [1]: 16 min
- LPG binding ([1]; 1 h): significant LPG was bound
- inhibition of LPS induction of IL-1β mRNA (IL-1β mRNA; LPS 2 μg/ml): greater than 90%
- inhibition of S. epidermidis induction of IL-1β mRNA (IL-1β mRNA): greater than 80%
- effect on TNF-α induction of endothelial cell production of TF (tissue factor): no effect
- effect on endotoxin-induction of TF (tissue factor; LPG 2 μM): completely abrogated
- effect on endotoxin induction of TF production (tissue factor; LPG pretreatment 1 hour): dose-dependent inhibition
